This is an account of results in US8318764B2, “Macrocyclic inhibitors of JAK” (Roche Palo Alto LLC, priority 2009, dated 2012).

For the assay, the target named is T1, JAK3: Recombinant human kinase domain (810-1124) (Homo sapiens, UniProt P52333).
T1 construct: Recombinant human kinase domain (810-1124); made in house
T1 sequence (P52333 810-1124): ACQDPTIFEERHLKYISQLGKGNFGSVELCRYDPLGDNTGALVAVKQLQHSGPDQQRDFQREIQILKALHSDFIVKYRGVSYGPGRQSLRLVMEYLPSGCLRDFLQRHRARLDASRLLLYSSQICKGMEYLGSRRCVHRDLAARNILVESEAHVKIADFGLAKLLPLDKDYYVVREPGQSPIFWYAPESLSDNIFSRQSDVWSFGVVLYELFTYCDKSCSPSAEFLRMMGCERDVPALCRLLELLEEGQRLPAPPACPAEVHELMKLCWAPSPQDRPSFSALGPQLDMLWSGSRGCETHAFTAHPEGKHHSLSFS
As to the kind of experiment: Determination of IC50 of Janus Kinase (JAK) inhibition, radioactive 33P-ATP end-point assay, JAK3. It is filed as biochemical. Particulars: 0.1 nM JAK3, ATP 1.5 uM, peptide 50 uM, 20 minutes, room temperature; read-out: JAK3 Enzyme IC50. The method, then:
Determination of IC50 of Janus Kinase (JAK) inhibition:
Enzymes and peptide substrate used are described below:
JAK3: Recombinant human kinase domain (810-1124) made in house by Roche Palo Alto
Substrate: N-terminally biotinylated 14-mer peptide derived from activation loop of JAK1 with sequence of the peptide substrate: Biotin-KAIETDKEYYTVKD
Assay conditions used are described below:
Assay Buffer: JAK Kinase Buffer: 50 mM Hepes [pH 7.2], 10 mM MgCl2, 1 mM DTT, 1 mg/ml BSA. The assay is carried out in this buffer.
Assay Format: The kinase activity of all three JAK kinases is measured using a radioactive, end-point assay and with trace amounts of ^33P-ATP. The assays are carried out in 96-well polypropylene plates.
All concentrations are final in the reaction mixture and all incubations are carried at room temperature. Assay steps are described below:
1) Compounds are serially diluted in 100% DMSO typically at a 10× starting concentration of 1 mM. Final concentration of DMSO in the reaction is 10%.
2) Compounds are preincubated with enzyme (0.1 nM JAK3, 1 nM JAK2, 5 nM JAK1) for 10 minutes.
3) Reactions are initiated by the addition of a cocktail of the two substrates (ATP and peptide premixed in the JAK Kinase Buffer). In the JAK1/JAK2/JAK3 assays, ATP and the peptide are used at concentrations of 1.5 uM and 50 uM, respectively. The duration of the assay for JAK2 and JAK3 is 20 minutes. JAK1 assay is carried out for 45 minutes. With all three enzymes, reactions are terminated by the addition of 0.5M EDTA to a final concentration of 100 mM. 4) 25 ul of terminated reactions are transferred to 150 ul of a 7.5% (v/v) slurry of streptavidin-coated sepharose beads in MgCl2- and CaCl2-free 1× Phosphate Buffered Saline containing 50 mM of EDTA in 96-well, 1.2 um MultiScreen-BV filter plates. 5) After a 30-minute incubation, the beads are washed under vacuum with the following buffers:
a. 3 to 4 washes with 200 ul of 2M NaCl.
b. 3 to 4 washes with 200 ul of 2M NaCl plus 1% (v/v) phosphoric acid.
6) Washed plates are dried in a 60° C. oven for between 1 to 2 hours.
7) 70 ul of Microscint 20 scintillation fluid is added to each well of filter plates and after at least 30 minutes of incubation, radioactive counts are measured in a Perkin Elmer microplate scintillation counter.
In general, IC50 refers to the concentration needed to halve the response being measured. For `CCC1(C)CCCCCCc2cccc(n2)Nc2n[nH]c3c2CN(C3)C1=O` (centres unmarked) [Compound I-1], the IC50 is 0.915 µM. The result for `CC1CCCCC(C)(C)C(=O)N2Cc3[nH]nc(c3C2)Nc2cccc1n2` (centres unmarked) [Compound I-2] reads 0.795 µM; that for `CC1(C)CCCCCc2cc(ccn2)Nc2n[nH]c3c2CN(C3)C1=O` [Compound I-3], over 10 µM; that for `CCC1(C)CCCCCc2cccc(n2)Nc2n[nH]c3c2CN(C3)C1=O` (centres unmarked) [Compound I-4], 0.28 µM. Take `CCC1(C)CCCCOc2cccc(n2)Nc2n[nH]c3c2CN(C3)C1=O` (centres unmarked) [Compound I-5]: the IC50 turned out to be 0.53 µM. For the molecule `CC1(C)CCCCCc2cccc(n2)Nc2n[nH]c3c2CN(C3)C1=O` [Compound I-6], the IC50 is 0.502 µM.

As to `CC1(C)CCCCc2cccc(n2)Nc2n[nH]c3c2CN(C3)C1=O` [Compound I-7], the IC50 worked out at 0.811 µM.

With `CC1(C)CCCCOc2cccc(n2)Nc2n[nH]c3c2CN(C3)C1=O` [Compound I-8], the IC50 came to 1.04 µM. The same measure for `CC1(C)CCCOc2cccc(n2)Nc2n[nH]c3c2CN(C3)C1=O` [Compound I-9]: over 3 µM; for `CC1(C)CCCCCOc2cccc(n2)Nc2n[nH]c3c2CN(C3)C1=O` [Compound I-10]: 0.343 µM; for `CC1CCc2cccc(n2)Nc2n[nH]c3c2CN(C3)C(=O)C(C)(C)CC1` (centres unmarked) [Compound I-11]: 0.487 µM. Consider `CC12CCN(CCCCc3cccc(n3)Nc3n[nH]c4c3CN(C4)C1=O)C2` (centres unmarked) [Compound I-12], for which the IC50 worked out at 0.0426 µM. Consider `CC12CCN(CCCc3cccc(n3)Nc3n[nH]c4c3CN(C4)C1=O)C2` (centres unmarked) [Compound I-13], for which the IC50 was determined as 0.0928 µM. In the case of `O=C1N2Cc3[nH]nc(c3C2)Nc2cccc(n2)CCCCCC12CCCCC2` [Compound I-14], the IC50 is 4.21 µM. For `O=C1N2Cc3[nH]nc(c3C2)Nc2cccc(n2)CCCCCC12CCCC2` [Compound I-15], the IC50 was determined as 0.444 µM. On to `CC1(c2ccccc2)CCCCCc2cccc(n2)Nc2n[nH]c3c2CN(C3)C1=O` (centres unmarked) [Compound I-16], for which the IC50 was over 1 µM.

As to `O=C1N2Cc3[nH]nc(c3C2)Nc2cccc(n2)CCCCCC12CCOCC2` [Compound I-17], the IC50 was over 1 µM.
